PMC7898037, “Improving mitochondria and ER stability helps eliminate upper motor neuron degeneration that occurs due to mSOD1 toxicity and TDP‐43 pathology” (Clinical and Translational Medicine, 2021)

What was measured:
[1] = cited from earlier work
[2] = test system: UMN apical dendrites of WT‐UeGFP mice; assay: UMN apical dendrites with vacuoles, WT‐UeGFP mice; format: in vivo
Procedure: (§1) hSOD1^G93A‐UeGFP, prpTDP‐43^A315T‐UeGFP and WT‐UeGFP mice were weighed and the required NU‐9 dose per weight was calculated (20 or 100 mg/kg), which was administered once daily by oral gavage, starting at postnatal day (P)60 and continuing until P120. Animals from the untreated group received the vehicle (NMP and olive oil) only. For oral administration purposes, 20 ga × 38 mm plastic feeding tubes were used (Instech Laboratories, Inc). The gavage tip was inserted into the mouth directly over the tongue and into the pharynx. While observing the swallowing reflex, the tip was safely and smoothly slid into the esophagus. Once the administration was completed, the gavage tip was pulled straight out.
Mice were deeply anesthetized using ketamine (90 mg/kg) with xylazine (10 mg/kg), and transcardially perfused with 4% PFA in PBS. The brains were removed intact and postfixed (4% PFA, overnight) and stored in PBS with sodium azide (0.01%) at 4°C. Sections were cut in a coronal (50 µm) plane using a vibratome (Leica) and processed for immunocytochemical analyses.
The antibodies used are as follows: anti‐GFP (1:1000, Invitrogen; or 1:1000, Abcam) and anti‐misfolded SOD1 (B8H10, 1:250, Médimabs). Briefly, sections were treated with blocking solution (PBS, 0.05% BSA, 2% FBS, 1% Triton X‐100, and 0.1% saponin) for 30 min at room temperature and incubated with primary antibody diluted in blocking solution overnight at 4°C. Appropriate secondary fluorescent antibodies (1:500, AlexaFluor‐conjugated, Invitrogen) were added to the blocking solution at room temperature for 2 h in the dark.

hSOD1^G93A‐UeGFP mice = assay: Rotarod test, hSOD1^G93A‐UeGFP mice; format: in vivo; set-up: Rotarod, Mean Diff. (vehicle minus NU-9) / Rotarod, mean difference GS vehicle vs. GS NU-9 (20) / Rotarod, mean difference GS vehicle vs. GS NU-9 (100): unit not given here; details: for Rotarod, group mean (Mean 1 / Mean 2 of 2way ANOVA multiple comparisons) / Rotarod, mean difference GS vehicle vs. GS NU-9 (20) / Rotarod, mean difference GS vehicle vs. GS NU-9 (100): GS (hSOD1G93A-UeGFP); for Rotarod, mean difference GS vehicle vs. GS NU-9 (20): vehicle minus NU-9 (20); for Rotarod, mean difference GS vehicle vs. GS NU-9 (100): vehicle minus NU-9 (100); for Rotarod, group mean (Mean 1 / Mean 2) / Rotarod, Mean Diff. (vehicle minus NU-9): hSOD1G93A-UeGFP mice; for Rotarod, Average: hSOD1G93A-UeGFP
Procedure: as §1
(§2) Behavior data were collected from hSOD1^G93A‐UeGFP and WT‐UeGFP mice (starting at P60 and every 7 days until P116) and from prpTDP‐43^A315T‐UeGFP mice (at P60, P90, and P120) with the following number of mice for each group: WT‐UeGFP vehicle (n = 10), hSOD1^G93A‐UeGFP vehicle (n = 6), WT‐UeGFP 20 mg/kg/day NU‐9 (n = 5), hSOD1^G93A‐UeGFP 20 mg/kg/day NU‐9 (n = 7), WT‐UeGFP 100 mg/kg/day NU‐9 (n = 11), hSOD1^G93A‐UeGFP 100 mg/kg/day NU‐9 (n = 9), prpTDP‐43^A315T‐UeGFP untreated (n ≥ 3), and prpTDP‐43^A315T‐UeGFP 100 mg/kg/day NU‐9 (n = 4) (Table S3).
(§3) Mice were placed on a rotating rod that accelerates linearly from 4 to 40 rpm (Rotarod, Ugo Basile), and the average time spent on the rotating rod for three consecutive trials was calculated for each mouse. Mice were allowed to run for a maximum of 5 min with a 5 min rest period between each run, and the latency to fall was recorded for three consecutive trials. The average of the three trials was taken as the data point for each mouse at the age tested, and the performance of different groups are reported as the mean ± SEM.

[3] = test system: prpTDP‐43^A315T‐UeGFP mice; assay: Rotarod test, prpTDP‐43^A315T‐UeGFP mice; format: in vivo; details: for Rotarod, Predicted (LS) mean: prpTDP-43A315T-UeGFP (NU-9 100 mg/kg/day); for Rotarod, Average: prpTDP-43A315T-UeGFP, NU-9 100 mg/kg/day po
Procedure: as §1, §2, §3

[4] = test system: SOD1^G93A‐expressing PC12 cell; details: in vitro potency; read-out: EC50 (protein aggregation/toxicity); cited from earlier work
[5] = WT-UeGFP mice, NU-9 100 mg/kg/day

C[C@H](Oc1cc(C(F)(F)F)cc(C(F)(F)F)c1)C1CC(=O)CC(=O)C1 [NU‐9]
plasma stability t 1/2 [1]: > 2 h | Mean, Fig. 4G (UMN apical dendrites with vacuoles) [2, 5]: 16.43 | Mean, Fig. 7E (UMN apical dendrites with vacuoles) [2, 5]: 16.43 | Mean Diff., Fig. 7E, G vehicle vs. G NU-9 (100) ([2]; WT-UeGFP vehicle minus NU-9 100 mg/kg/day, Tukey's multiple comparisons test): 17.11 | Mean Diff., Fig. 4G, G Vehicle vs. G NU-9 (100) ([2]; WT-UeGFP vehicle minus WT-UeGFP NU-9 100 mg/kg/day, Tukey's multiple comparisons test): 11.77 | percentage of UMN apical dendrites with vacuoles ([2]; WT‐UeGFP mice, 100 mg/kg/day oral gavage P60–P120): 16% ± 5% | Rotarod, group mean (Mean 1 / Mean 2 of 2way ANOVA multiple comparisons) (hSOD1^G93A‐UeGFP mice; NU-9 (20), P102): 158.8 | Rotarod, group mean (Mean 1 / Mean 2 of 2way ANOVA multiple comparisons) (hSOD1^G93A‐UeGFP mice; NU-9 (20), P109): 149.1 | Rotarod, group mean (Mean 1 / Mean 2 of 2way ANOVA multiple comparisons) (hSOD1^G93A‐UeGFP mice; NU-9 (20), P116): 107.7 | Rotarod, group mean (Mean 1 / Mean 2 of 2way ANOVA multiple comparisons) (hSOD1^G93A‐UeGFP mice; NU-9 (100), P102): 170 | Rotarod, group mean (Mean 1 / Mean 2 of 2way ANOVA multiple comparisons) (hSOD1^G93A‐UeGFP mice; NU-9 (100), P109): 151.3 | Rotarod, group mean (Mean 1 / Mean 2 of 2way ANOVA multiple comparisons) (hSOD1^G93A‐UeGFP mice; NU-9 (100), P116): 128.5 | Rotarod, mean difference GS vehicle vs. GS NU-9 (20) (hSOD1^G93A‐UeGFP mice; P102): 22.8 | Rotarod, mean difference GS vehicle vs. GS NU-9 (20) (hSOD1^G93A‐UeGFP mice; P109): 18.74 | Rotarod, mean difference GS vehicle vs. GS NU-9 (20) (hSOD1^G93A‐UeGFP mice; P116): 14.44 | Rotarod, mean difference GS vehicle vs. GS NU-9 (100) (hSOD1^G93A‐UeGFP mice; P102): 11.61 | Rotarod, mean difference GS vehicle vs. GS NU-9 (100) (hSOD1^G93A‐UeGFP mice; P109): 16.57 | Rotarod, mean difference GS vehicle vs. GS NU-9 (100) (hSOD1^G93A‐UeGFP mice; P116): -6.407 | Rotarod, group mean (Mean 1 / Mean 2) (hSOD1^G93A‐UeGFP mice; NU-9 20 mg/kg/day, P60): 221.3 | Rotarod, group mean (Mean 1 / Mean 2) (hSOD1^G93A‐UeGFP mice; NU-9 20 mg/kg/day, P67): 221.6 | Rotarod, group mean (Mean 1 / Mean 2) (hSOD1^G93A‐UeGFP mice; NU-9 20 mg/kg/day, P74): 213.6 | Rotarod, group mean (Mean 1 / Mean 2) (hSOD1^G93A‐UeGFP mice; NU-9 20 mg/kg/day, P81): 207.4 | Rotarod, group mean (Mean 1 / Mean 2) (hSOD1^G93A‐UeGFP mice; NU-9 20 mg/kg/day, P88): 209.5 | Rotarod, group mean (Mean 1 / Mean 2) (hSOD1^G93A‐UeGFP mice; NU-9 20 mg/kg/day, P95): 178.8 | Rotarod, group mean (Mean 1 / Mean 2) (hSOD1^G93A‐UeGFP mice; NU-9 100 mg/kg/day, P60): 206.8 | Rotarod, group mean (Mean 1 / Mean 2) (hSOD1^G93A‐UeGFP mice; NU-9 100 mg/kg/day, P67): 223.1 | Rotarod, group mean (Mean 1 / Mean 2) (hSOD1^G93A‐UeGFP mice; NU-9 100 mg/kg/day, P74): 224 | Rotarod, group mean (Mean 1 / Mean 2) (hSOD1^G93A‐UeGFP mice; NU-9 100 mg/kg/day, P81): 223.4 | Rotarod, group mean (Mean 1 / Mean 2) (hSOD1^G93A‐UeGFP mice; NU-9 100 mg/kg/day, P88): 203.8 | Rotarod, group mean (Mean 1 / Mean 2) (hSOD1^G93A‐UeGFP mice; NU-9 100 mg/kg/day, P95): 191 | Rotarod, Mean Diff. (vehicle minus NU-9) (hSOD1^G93A‐UeGFP mice; vehicle vs. NU-9 20 mg/kg/day, P60): -28.22 | Rotarod, Mean Diff. (vehicle minus NU-9) (hSOD1^G93A‐UeGFP mice; vehicle vs. NU-9 20 mg/kg/day, P67): 4.159 | Rotarod, Mean Diff. (vehicle minus NU-9) (hSOD1^G93A‐UeGFP mice; vehicle vs. NU-9 20 mg/kg/day, P74): 4.103 | Rotarod, Mean Diff. (vehicle minus NU-9) (hSOD1^G93A‐UeGFP mice; vehicle vs. NU-9 20 mg/kg/day, P81): -5.651 | Rotarod, Mean Diff. (vehicle minus NU-9) (hSOD1^G93A‐UeGFP mice; vehicle vs. NU-9 20 mg/kg/day, P88): -17.41 | Rotarod, Mean Diff. (vehicle minus NU-9) (hSOD1^G93A‐UeGFP mice; vehicle vs. NU-9 20 mg/kg/day, P95): 23.52 | Rotarod, Mean Diff. (vehicle minus NU-9) (hSOD1^G93A‐UeGFP mice; vehicle vs. NU-9 20 mg/kg/day, P102): 22.8 | Rotarod, Mean Diff. (vehicle minus NU-9) (hSOD1^G93A‐UeGFP mice; vehicle vs. NU-9 20 mg/kg/day, P109): 18.74 | Rotarod, Mean Diff. (vehicle minus NU-9) (hSOD1^G93A‐UeGFP mice; vehicle vs. NU-9 20 mg/kg/day, P116): 14.44 | Rotarod, Mean Diff. (vehicle minus NU-9) (hSOD1^G93A‐UeGFP mice; vehicle vs. NU-9 100 mg/kg/day, P60): -13.7 | Rotarod, Mean Diff. (vehicle minus NU-9) (hSOD1^G93A‐UeGFP mice; vehicle vs. NU-9 100 mg/kg/day, P67): 2.704 | Rotarod, Mean Diff. (vehicle minus NU-9) (hSOD1^G93A‐UeGFP mice; vehicle vs. NU-9 100 mg/kg/day, P74): -6.241 | Rotarod, Mean Diff. (vehicle minus NU-9) (hSOD1^G93A‐UeGFP mice; vehicle vs. NU-9 100 mg/kg/day, P81): -21.67 | Rotarod, Mean Diff. (vehicle minus NU-9) (hSOD1^G93A‐UeGFP mice; vehicle vs. NU-9 100 mg/kg/day, P88): -11.7 | Rotarod, Mean Diff. (vehicle minus NU-9) (hSOD1^G93A‐UeGFP mice; vehicle vs. NU-9 100 mg/kg/day, P95): 11.37 | Rotarod, Mean Diff. (vehicle minus NU-9) (hSOD1^G93A‐UeGFP mice; vehicle vs. NU-9 100 mg/kg/day, P102): 11.61 | Rotarod, Mean Diff. (vehicle minus NU-9) (hSOD1^G93A‐UeGFP mice; vehicle vs. NU-9 100 mg/kg/day, P109): 16.57 | Rotarod, Mean Diff. (vehicle minus NU-9) (hSOD1^G93A‐UeGFP mice; vehicle vs. NU-9 100 mg/kg/day, P116): -6.407 | Rotarod, Average (hSOD1^G93A‐UeGFP mice; NU-9 20 mg/kg/day po, P60): 221.333 s | Rotarod, Average (hSOD1^G93A‐UeGFP mice; NU-9 20 mg/kg/day po, P67): 221.619 s | Rotarod, Average (hSOD1^G93A‐UeGFP mice; NU-9 20 mg/kg/day po, P74): 213.619 s | Rotarod, Average (hSOD1^G93A‐UeGFP mice; NU-9 20 mg/kg/day po, P81): 207.429 s | Rotarod, Average (hSOD1^G93A‐UeGFP mice; NU-9 20 mg/kg/day po, P88): 209.524 s | Rotarod, Average (hSOD1^G93A‐UeGFP mice; NU-9 20 mg/kg/day po, P95): 178.81 s | Rotarod, Average (hSOD1^G93A‐UeGFP mice; NU-9 20 mg/kg/day po, P102): 158.81 s | Rotarod, Average (hSOD1^G93A‐UeGFP mice; NU-9 20 mg/kg/day po, P109): 149.095 s | Rotarod, Average (hSOD1^G93A‐UeGFP mice; NU-9 20 mg/kg/day po, P116): 107.667 s | Rotarod, Average (hSOD1^G93A‐UeGFP mice; NU-9 100 mg/kg/day po, P60): 206.815 s | Rotarod, Average (hSOD1^G93A‐UeGFP mice; NU-9 100 mg/kg/day po, P67): 223.074 s | Rotarod, Average (hSOD1^G93A‐UeGFP mice; NU-9 100 mg/kg/day po, P74): 223.963 s | Rotarod, Average (hSOD1^G93A‐UeGFP mice; NU-9 100 mg/kg/day po, P81): 223.444 s | Rotarod, Average (hSOD1^G93A‐UeGFP mice; NU-9 100 mg/kg/day po, P88): 203.815 s | Rotarod, Average (hSOD1^G93A‐UeGFP mice; NU-9 100 mg/kg/day po, P95): 190.963 s | Rotarod, Average (hSOD1^G93A‐UeGFP mice; NU-9 100 mg/kg/day po, P102): 170 s | Rotarod, Average (hSOD1^G93A‐UeGFP mice; NU-9 100 mg/kg/day po, P109): 151.259 s | Rotarod, Average (hSOD1^G93A‐UeGFP mice; NU-9 100 mg/kg/day po, P116): 128.519 s | rotarod performance (hSOD1^G93A‐UeGFP mice; hSOD1^G93A‐UeGFP mice, regardless of dose (20 or 100 mg/kg/day)): did not result in significant improvement | Rotarod, Predicted (LS) mean ([3]; P60, mixed-effects analysis): 260 | Rotarod, Predicted (LS) mean ([3]; P90, mixed-effects analysis): 216 | Rotarod, Predicted (LS) mean ([3]; P120, mixed-effects analysis): 165.8 | Rotarod, Average ([3]; P60): 267.889 | Rotarod, Average ([3]; P90): 232.556 | Rotarod, Average ([3]; P120): 178.444 | rotarod test, latency to fall ([3]; prpTDP‐43^A315T‐UeGFP mice, 100 mg/kg/day, after 30 days of treatment): 232.6 ± 18.1 s | EC50 [4]: 300 nM
